Measured values taken from publication PMC10009755, “Discovery and Characterization of BAY-805, a Potent and Selective Inhibitor of Ubiquitin-Specific Protease USP21” (Journal of Medicinal Chemistry, 2023).
≈ marks a conversion by molar mass, not a printed value. Read-outs that look alike come from different tables or passages of the source.

Tests used:
in vitro = in vitro ADME; conditions: human, Caco-2, pH 7.2
Experimental: Caco-2 cells [purchased from the German Collection of Microorganisms and Cell Cultures (DSMZ)] were seeded at a density of 4.5 × 10^4 cells/well on 24-well insert plates [0.4 μm pore size, 0.3 cm^2 (Costar)] and grown for 13–15 days in DMEM medium supplemented with 10% fetal calf serum (FCS), 1% GlutaMAX (100×, Gibco), 100 U/mL penicillin, 100 μg/mL streptomycin (Gibco), and 1% nonessential amino acids (100×, Thermo Fischer Scientific). […] The medium was changed every 2–3 days.
The bidirectional transport assay for the evaluation of Caco-2 permeability was undertaken in 24-well insert plates using a robotic system (Tecan). Before the assay was run, the culture medium was replaced by a transport medium (FCS-free HEPES carbonate transport buffer pH 7.2). For the assessment of monolayer integrity, the transepithelial electrical resistance (TEER) was measured. Only monolayers with a TEER of at least 400 Ω·cm^2 were used. Test compounds were pre-dissolved in DMSO and added either to the apical or basolateral compartment at a final concentration of 2 μM. The evaluation was performed in triplicate. […] The efflux ratio (ER) basolateral (B) to apical (A) was calculated by dividing Papp B–A by Papp A–B.

[1] = target: T1, C-terminal HiBiT-tagged USP21 (Homo sapiens, UniProt Q9UK80); assay: USP21 HiBiT CETSA; type: cell-based; conditions: 49 °C, HEK293T cells
T1 construct: expressed in transfected cells; host or cells: HEK293T
T1 sequence (Q9UK80 1-565): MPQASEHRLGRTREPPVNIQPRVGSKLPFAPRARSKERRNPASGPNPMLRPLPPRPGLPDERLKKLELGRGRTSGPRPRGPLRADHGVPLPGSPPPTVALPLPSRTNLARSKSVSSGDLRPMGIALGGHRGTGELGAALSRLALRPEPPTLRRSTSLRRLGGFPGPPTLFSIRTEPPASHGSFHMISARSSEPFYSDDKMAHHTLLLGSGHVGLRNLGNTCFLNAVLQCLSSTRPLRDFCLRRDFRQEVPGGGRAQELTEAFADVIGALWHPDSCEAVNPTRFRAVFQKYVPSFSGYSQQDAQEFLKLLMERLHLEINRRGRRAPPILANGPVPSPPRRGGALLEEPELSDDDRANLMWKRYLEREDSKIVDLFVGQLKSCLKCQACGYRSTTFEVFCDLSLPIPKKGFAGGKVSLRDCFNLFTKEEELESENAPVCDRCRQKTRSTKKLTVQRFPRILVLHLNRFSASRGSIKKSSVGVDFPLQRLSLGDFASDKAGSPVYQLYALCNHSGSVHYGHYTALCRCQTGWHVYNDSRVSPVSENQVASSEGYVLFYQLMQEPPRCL
Experimental: In particular, we utilized a HiBiT CETSA assay format[42],[43] conducted in intact HEK293T cells. Cells were transfected with USP21 fused to a small proluminescent NanoLuc HiBiT tag, which, when complemented with the Large BiT NanoLuc fragment, produces a quantifiable luminescence signal.
HEK293T cells were seeded in a six-well plate at 8 × 10^5 cells/well in 2 mL of DMEM supplemented with 10% FBS, penicillin (100 U/mL), and streptomycin (100 μg/mL) and transfected 4 h after seeding using an X-tremeGENE HP transfection reagent, following the manufacturer’s instructions with a total of 2 μg of plasmid constructs (C-terminally tagged USP21 HiBiT and empty pCDNA3.1 vector). […] The breathable paper adhesive film was then replaced with a PCR adhesive film, and cells were heated at indicated temperatures in an Applied Biosystems VeritiPro thermal cycler for 3 min, followed by 3 min incubation at rt before the addition of LgBiT solution (200 nM LgBiT, 2% NP-40, protease inhibitors (Roche cOmplete, ethylenediaminetetraacetic acid (EDTA)-free Protease Inhibitor) in OptiMEM no phenol red (Gibco)) to lyse cells.

NF-κB activation = assay: NF-κB reporter assay; type: cell-based; conditions: HEK293T cells, up to 10 μM
Experimental: Yang and colleagues reported that USP21 inhibition induces NF-κB activation by preventing deubiquitination of RIP1.[15] K63 ubiquitinated RIP1 is required for NF-κB activation, and thus USP21-mediated deubiquitination of RIP1 shuts down the NF-κB pathway.
Four hours after replating, cells were treated with compounds or DMSO (note: DMSO concentrations were kept consistent across all cells). Promega Dual-Luciferase Reporter Assay kit was then used to prepare samples for Firefly and Renilla signal measurement on a CLARIOstar microplate reader (BMG) 20 h after compound treatment. Relative luciferase units were calculated by normalizing the Firefly signal to the background Renilla signal, followed by normalization to DMSO controls of wild-type USP21.

USP21 [2] = target: T2, USP21 (Homo sapiens, UniProt Q9UK80)
T2 sequence (Q9UK80 1-565): T1 sequence (Q9UK80 1-565)
Experimental: The final assay volume was 6 μL. […] First, 2 μL of 1 nM USP21 (or selectivity enzyme) solution was added to the compound plate and preincubated for 15–20 min at room temperature. […] The reaction was stopped by 50 mM citric acid in 25 mM HEPES, pH 7.5, containing 0.01% BSA. […] The USP21 and USP22 were measured with five flashes and USP2 and USP7 in fly mode.

Aqueous solubility = type: physicochemical; conditions: PBS pH 6.5, pH 6.5, PBS pH 6.5
Experimental: Test compounds were applied as DMSO solutions or directly from powder. After the addition of the buffer, solutions were shaken at rt for 24 h. The undissolved material was removed by filtration or centrifugation. The compound dissolved in the supernatant was quantified by HPLC-UV or HPLC-MS/MS.

log D measurement (HPLC) = type: physicochemical; conditions: reverse-phase HPLC, pH 7.5, pH 7.5, HPLC method; read-out: logD7.5
Experimental: log D values at pH 7.5 were recorded using an indirect method for determining hydrophobicity constants by reverse-phase HPLC. A series of compounds with well-known log D values were used for calibration. Test compounds were injected into the same HPLC system. The lipophilicity of compounds was then assessed by comparison to the calibration curve.

USP21 [3] = target: T2, USP21; assay: biochemical
Experimental: To this end, we developed a USP21 activity assay that is based on the deubiquitination of a STING-derived peptide (a USP21-specific substrate[17],[18]) by purified recombinant human full-length USP21 using time-resolved fluorescence resonance energy transfer (TR-FRET) technology (referred to as a homogeneous time-resolved fluorescence (HTRF)-assay, for details see the Supporting Information).[39]
All substrate and enzyme solutions were diluted in an assay buffer. […] Incubation time was 15–20 min at room temperature. […] The stop solution (DUB inhibitor PR619, Abcam) was prepared in 25 mM HEPES, pH 7.5 (Alfa Aesar) containing 0.01% BSA and then left for 10 min at room temperature before filtering with a 0.2 μM PES Membrane (Thermo Fisher). The reaction was stopped with the addition of 2 μL of 200 μM PR619. […] The plates were measured on the ViewLux in screening or PHERAstar FSX in compound profiling. […] The number of flashes per well was set to 3. All of the experimental data were plotted using Genedata analysis. The Z′-factor and S/B of the assay were >0.7 and ∼2, respectively.

- Papp A→B at 2 h, 2 µM (in vitro; 2 μM, 2 h): 3.4 ×10⁻⁶ cm/s
- efflux ratio at 2 h, 2 µM (in vitro; Papp B–A / Papp A–B, read-out: Caco-2 efflux ratio (ER)): 0.7
- cellular thermal stabilization of USP21 (in words) [1]: Strong thermal stabilization of USP21
- IC50 (USP21 [2]): 0.008 µM
- solubility at 24 h (Aqueous solubility): 1.33 µM (≈ 0.691 µg/mL)
- chromatographic logD (log D measurement (HPLC)): 3.7
- IC50 (USP21 [3]): 0.013 µM
Compound: N#Cc1ccc(Cc2nnc(NC(=O)[C@H](NC(=O)C3(C(F)(F)F)CCCCC3)C3CCCC3)s2)cc1 [Compound 20, FC(F)(F)C1(CCCCC1)C(=O)N[C@H](C2CCCC2)C(=O)Nc3nnc(Cc4ccc(cc4)C#N)s3]
- NF-κB activation (in words) (NF-κB activation): significant NF-κB activation levels
